Laboratory results taken from patent US11285226B2, “Aryl ethene derivative and pharmaceutical composition containing same as active ingredient” (priority 2016, dated 2022).

Columns and labels:
[1] = molecular target: ERR gamma ligand-binding domain (LBD) (Homo sapiens (Human), UniProt P62508); assay: ERRγ binding assay (inverse agonist assay), TR-FRET
Description: 1) ERRγ Binding Assay (Inverse Agonist Assay)
(§3) The arylethene derivative of the present invention was sequentially added to a 384 well plate from a concentration of 10 μM to a final concentration of two-fold dilution. […] After all reagents were added, a reaction was carried out with gentle shaking at 20° C. for 1 hour, and after the reaction, a binding activity was measured by a TR-FRET method.

[2] = molecular target: ERR alpha LBD (Homo sapiens (Human), UniProt P11474); settings: read-out: Binding Assay, IC50 ERRα
Description: as §3

[3] = molecular target: ER alpha ligand-binding domain (LBD) (Homo sapiens (Human), UniProt P03372); settings: beta-estradiol 4 nM as agonist; read-out: Binding Assay, IC50 ERα
Chain of ER alpha ligand-binding domain (LBD) (P03372 whole entry, looked up, the tested form may be a part): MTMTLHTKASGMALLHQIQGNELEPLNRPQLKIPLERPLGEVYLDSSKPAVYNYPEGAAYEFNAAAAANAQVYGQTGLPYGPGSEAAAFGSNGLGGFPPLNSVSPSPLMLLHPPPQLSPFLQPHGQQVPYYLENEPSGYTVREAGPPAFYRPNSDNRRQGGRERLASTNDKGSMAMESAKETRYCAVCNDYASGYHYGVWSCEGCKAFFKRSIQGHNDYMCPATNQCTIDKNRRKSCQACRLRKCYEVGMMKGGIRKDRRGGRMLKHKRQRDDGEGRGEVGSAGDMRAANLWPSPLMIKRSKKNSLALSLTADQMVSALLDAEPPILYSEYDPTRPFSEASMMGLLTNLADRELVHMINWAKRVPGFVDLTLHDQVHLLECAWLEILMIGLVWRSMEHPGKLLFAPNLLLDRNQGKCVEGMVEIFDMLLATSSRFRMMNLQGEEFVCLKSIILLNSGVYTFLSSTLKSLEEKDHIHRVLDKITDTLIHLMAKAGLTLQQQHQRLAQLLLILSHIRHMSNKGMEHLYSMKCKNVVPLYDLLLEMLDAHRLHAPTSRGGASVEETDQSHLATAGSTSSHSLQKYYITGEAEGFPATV
Description: as §3

[4] = molecular target: CYP1A2 (Homo sapiens (Human), UniProt P05177); assay: Cytochrome P450 activity inhibition, CYP1A2; assay type: in vitro ADME; settings: 10 μM, human liver microsomes
Chain of CYP1A2 (P05177 whole entry): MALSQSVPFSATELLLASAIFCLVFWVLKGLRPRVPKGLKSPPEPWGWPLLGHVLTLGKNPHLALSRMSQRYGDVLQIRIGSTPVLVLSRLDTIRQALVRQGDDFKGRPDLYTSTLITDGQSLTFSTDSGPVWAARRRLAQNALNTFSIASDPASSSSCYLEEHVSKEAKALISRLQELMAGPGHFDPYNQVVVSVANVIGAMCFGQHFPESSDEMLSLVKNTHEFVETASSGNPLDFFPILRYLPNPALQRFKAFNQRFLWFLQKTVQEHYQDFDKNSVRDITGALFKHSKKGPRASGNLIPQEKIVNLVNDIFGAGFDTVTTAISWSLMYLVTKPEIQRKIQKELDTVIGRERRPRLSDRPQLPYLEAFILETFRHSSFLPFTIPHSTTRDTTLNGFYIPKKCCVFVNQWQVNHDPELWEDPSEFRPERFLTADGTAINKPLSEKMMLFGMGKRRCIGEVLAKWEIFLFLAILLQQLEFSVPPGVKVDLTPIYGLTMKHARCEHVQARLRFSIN
Excerpt: (§1) 1) Cytochrome P450 (CYP450) Activity Inhibition Evaluation

[5] = molecular target: CYP2C9 (Homo sapiens (Human), UniProt P11712); assay: Cytochrome P450 activity inhibition, CYP2C9; assay type: in vitro ADME; settings: 10 μM, human liver microsomes
Chain of CYP2C9 (P11712 whole entry): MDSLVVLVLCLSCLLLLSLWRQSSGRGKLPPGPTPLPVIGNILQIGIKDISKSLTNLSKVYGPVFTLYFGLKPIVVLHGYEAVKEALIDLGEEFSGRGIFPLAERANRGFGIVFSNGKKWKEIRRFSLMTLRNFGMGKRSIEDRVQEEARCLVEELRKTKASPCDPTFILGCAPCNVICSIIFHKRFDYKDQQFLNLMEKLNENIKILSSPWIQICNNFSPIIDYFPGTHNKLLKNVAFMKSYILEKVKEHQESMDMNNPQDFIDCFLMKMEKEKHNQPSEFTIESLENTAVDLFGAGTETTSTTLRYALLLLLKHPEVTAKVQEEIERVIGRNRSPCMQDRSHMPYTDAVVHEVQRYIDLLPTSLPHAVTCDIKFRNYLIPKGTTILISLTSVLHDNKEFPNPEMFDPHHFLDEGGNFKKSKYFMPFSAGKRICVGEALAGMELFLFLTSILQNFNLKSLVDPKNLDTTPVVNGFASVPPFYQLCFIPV
Excerpt: as §1

[6] = molecular target: CYP2C19 (Homo sapiens (Human), UniProt P33261); assay: Cytochrome P450 activity inhibition, CYP2C19; assay type: in vitro ADME; settings: 10 μM, human liver microsomes
Chain of CYP2C19 (P33261 whole entry): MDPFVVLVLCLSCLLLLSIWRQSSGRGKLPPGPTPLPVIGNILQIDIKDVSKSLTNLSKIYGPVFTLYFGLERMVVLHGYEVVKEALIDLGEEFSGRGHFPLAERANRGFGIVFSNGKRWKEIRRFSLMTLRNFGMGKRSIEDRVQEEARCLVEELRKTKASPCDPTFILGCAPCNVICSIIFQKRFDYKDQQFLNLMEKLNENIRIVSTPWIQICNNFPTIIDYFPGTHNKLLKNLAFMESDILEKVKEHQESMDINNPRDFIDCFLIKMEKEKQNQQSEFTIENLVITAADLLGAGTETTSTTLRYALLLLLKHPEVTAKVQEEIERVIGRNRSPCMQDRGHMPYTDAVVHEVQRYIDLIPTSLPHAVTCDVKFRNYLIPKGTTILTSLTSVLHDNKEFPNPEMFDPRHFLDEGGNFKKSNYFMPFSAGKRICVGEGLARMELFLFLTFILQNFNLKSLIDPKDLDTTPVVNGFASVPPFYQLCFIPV
Excerpt: as §1

[7] = molecular target: CYP2D6 (Homo sapiens (Human), UniProt P10635); assay: Cytochrome P450 activity inhibition, CYP2D6; assay type: in vitro ADME; settings: 10 μM, human liver microsomes
Chain of CYP2D6 (P10635 whole entry): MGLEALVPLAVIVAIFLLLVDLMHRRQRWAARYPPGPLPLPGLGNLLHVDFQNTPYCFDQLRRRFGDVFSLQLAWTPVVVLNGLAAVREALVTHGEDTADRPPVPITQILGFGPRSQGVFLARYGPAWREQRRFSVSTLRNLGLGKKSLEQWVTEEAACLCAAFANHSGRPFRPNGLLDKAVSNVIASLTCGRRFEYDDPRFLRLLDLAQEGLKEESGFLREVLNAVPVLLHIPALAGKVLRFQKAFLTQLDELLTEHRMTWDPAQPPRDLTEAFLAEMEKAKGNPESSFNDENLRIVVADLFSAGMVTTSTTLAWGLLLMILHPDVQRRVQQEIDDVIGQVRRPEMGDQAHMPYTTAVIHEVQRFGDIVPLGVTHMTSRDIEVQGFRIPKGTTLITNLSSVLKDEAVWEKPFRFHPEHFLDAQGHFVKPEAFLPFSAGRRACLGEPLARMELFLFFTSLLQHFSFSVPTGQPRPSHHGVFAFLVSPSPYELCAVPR
Excerpt: as §1

[8] = molecular target: CYP3A4 (Homo sapiens (Human), UniProt P08684); assay: Cytochrome P450 activity inhibition, CYP3A4; assay type: in vitro ADME; settings: 10 μM, human liver microsomes
Chain of CYP3A4 (P08684 whole entry): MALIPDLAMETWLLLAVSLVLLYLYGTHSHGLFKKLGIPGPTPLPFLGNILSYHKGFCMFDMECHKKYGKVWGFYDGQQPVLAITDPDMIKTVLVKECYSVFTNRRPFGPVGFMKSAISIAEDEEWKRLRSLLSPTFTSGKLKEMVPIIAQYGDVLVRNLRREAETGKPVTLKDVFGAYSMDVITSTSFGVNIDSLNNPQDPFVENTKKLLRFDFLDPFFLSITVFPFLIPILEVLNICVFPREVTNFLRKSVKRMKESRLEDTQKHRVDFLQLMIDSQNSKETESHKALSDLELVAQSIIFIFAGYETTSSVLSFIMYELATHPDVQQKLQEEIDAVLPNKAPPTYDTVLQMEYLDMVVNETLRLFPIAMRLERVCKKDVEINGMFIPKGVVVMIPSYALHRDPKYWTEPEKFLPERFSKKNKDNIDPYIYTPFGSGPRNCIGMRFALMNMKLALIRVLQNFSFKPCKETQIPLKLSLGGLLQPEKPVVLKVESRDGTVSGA
Description: Thereafter, in order to complete the reaction, an acetonitrile solution containing an internal standard material (Terfenadine) was added thereto, centrifugation (14,000 rpm, 4° C.) was performed for 5 minutes, and a supernatant was injected into a LC-MS/MS system to analyze the metabolites of the substrate drug, thereby evaluating drug metabolism enzyme inhibition by the arylethene derivative of the present invention.

[9] = assay type: in vitro ADME, human; settings: 1 μM, 30 minutes, 37° C.
Description: 2) Microsomal Stability Evaluation
(§4) Four liver microsomes (Human, Dog, Rat, Mouse 0.5 mg/ml) with a 0.1 M phosphate buffer solution (pH 7.4), and the arylethene derivative of the present invention were added to a concentration of 1 μM, culturing was performed at 37° C. for 5 minutes in advance, a NADPH regeneration system solution was added thereto, and culturing was performed at 37° C. for 30 minutes. Thereafter, in order to complete the reaction, an acetonitrile solution containing an internal standard material (chlorpropamide) was added thereto, centrifugation (14,000 rpm, 4° C.) was performed for 5 minutes, and a supernatant was injected into a LC-MS/MS system to analyze the substrate drug, thereby evaluating metabolism stability to the arylethene derivative of the present invention.

[10] = assay type: in vitro ADME, dog; settings: 1 μM, 30 minutes, 37° C.
Description: 2) Microsomal Stability Evaluation
as §4

[11] = assay type: in vitro ADME, rat; settings: 1 μM, 30 minutes, 37° C.
Description: 2) Microsomal Stability Evaluation
as §4

[12] = assay type: in vitro ADME, mouse; settings: 1 μM, 30 minutes, 37° C.
Description: 2) Microsomal Stability Evaluation
as §4

[13] = assay type: in vitro ADME; settings: PBS pH 7.4, 25° C., 5 hours
Description: 3) Parallel Artificial Membrane Permeability Assay (PAMPA) Evaluation
PAMPA is a method which has been developed for testing cell membrane permeability of a material in a test tube, and has been performed using a lipid tri-layer PVDF membrane available from Corning Gentest (NY, US), the used reagents were all purchased from Sigma (MO, US). First, a test material is diluted in PBS (pH 7.4) to a final concentration of 10 mM, 300 mL of the solution is added to the bottom well of a 96-transwell equipped with a PVDF membrane, and 200 mL of PBS is added to the upper well. Then, a plate is reacted at 25° C. for 5 hours, 20 mL of the solution in each well is transferred to a new container, and 80 mL of acetonitrile containing an internal standard material (4 mM chloropropamide) is added thereto. A concentration of the material in the solution is analyzed using LC-MS/MS (ThermoFisher Scientific, MO, US), and the transmittance of the material is calculated according to the equation reported in the reference document. • Reference document: A novel design of artificial membrane for improving the PAMPA model.

[14] = tested on: CAL-62 cells; assay: 125I uptake assay in anaplastic thyroid cancer cells; assay type: cell-based
[15] = tested on: ERRγ mRNA in CAL62 cells; assay: Quantitative RT-PCR, ERRγ mRNA; assay type: cell-based
Description: (§2) Total RNA was separated using Trizol (Invitrogen, Carlsbad, Calif.). Total RNA (2 ug) was reverse-transcribed into cDNA with RevertAid First Strand cDNA Synthesis Kit (Thermo Scientific, Pittsburgh, Pa.). Genes were amplified with a ViiA 7 Real-Time PCR System instrument (Applied Biosystems) using the primer of each target gene and YBR Green PCR master mix (Applied Biosystems, Foster City, Calif.), using a cDNA template. The primer sequence of each target gene is as follows: ERRγ (forward, 5′-CAG ACG CCA GTG GGA GCT A-3′; reverse, 5′-TGGCGAGTCAAGTCCGTTCT-3′), NIS (forward, 5′-TCTAACCGATGCTCACCTCTTCTG-3′; reverse, 5′-AGATGATGGCACCTCCTTGAACC-3′), and acidic ribosomal protein 36B4 (forward, 5′-CCA CGC TGC TGA ACA TGC T-3′; reverse, 5′-TCGAACACCTGCTGGATGAC-3′). Each target gene was normalized using a 36B4 gene.

[16] = tested on: NIS mRNA in CAL62 cells; assay: Quantitative RT-PCR, NIS mRNA; assay type: cell-based
Description: as §2

[17] = tested on: ERRγ protein in CAL62 cells; assay: Western blot, ERRγ protein; assay type: cell-based
[18] = tested on: NIS protein in CAL62 cells; assay: Western blot, total and membrane-localized NIS protein; assay type: cell-based, human
[19] = tested on: CAL62 cells; assay: Clonogenic assay with 131I; assay type: cell-based; settings: alone
Description: The cells were plated in a 6-well plate, and allowed to stand for 24 hours. […] The cells were washed with cold bHBSS, and allowed to stand in a normalized culture medium for a time corresponding to six doublings. Finally, the cells were fixed in a 4% paraformaldehyde (PFA) solution and stained with 0.05% crystal violet.

[20] = tested on: CAL-62/effluc mouse tumor model; assay: Bio-distribution study, 125I uptake in CAL-62/effluc tumor; assay type: in vivo
Description: Nude mice (Balb/c nu/nu, female, 6 weeks old) were used, and all animals were normally raised in DMRC center animal laboratory of Kyungbuk National University Hospital in Chilgok. 5×10^6 CAL-62/effluc cells were subcutaneously injected into the left femoral region of the nude mouse to form a tumor. The tumor was extracted, divided into small pieces (20 mg or more), and then intradermally injected into the nude mouse to form a tumor.
After 4 hours of administration, all organs including a parent tumor were extracted, and each organ was weighed. Thereafter, each organ was transferred to a 5 mL test tube, and radioactivity in the organ was measured using a gamma counter.

[21] = Weight change of mice during administration; settings: all groups
[22] = molecular target: ERRβ (Homo sapiens, UniProt O95718); assay: ERRβ binding assay (selectivity test), TR-FRET
Description: as §3

[23] = tested on: ERRγ; assay type: cell-based
Description: AD293 was cultured in a 24-well plate for 24 hours, using a DMEM High glucose culture medium (Hyclone, USA) to which 0.5% FBS was added at a concentration of 9×10^4/well. The culture medium was replaced with a DMEM High glucose culture medium to which 10% FBS was added, treatment was performed with a mixture of a TransIT-LT1 transfection reagent (Minis, USA) and pCMX-Gal4-ERRγ, pFR-luciferase reporter plasmid, pCMV-β-gal, and culturing was performed for 24 hours. Thereafter, a luciferase activity assay and a β-gal assay were performed, respectively, with a lysate obtained after treatment with the arylethene derivative of the present invention for 24 hours. All results were derived from three or more independent repetitive experiments.

Chain of ERR alpha LBD (P11474 193-421, species assumed): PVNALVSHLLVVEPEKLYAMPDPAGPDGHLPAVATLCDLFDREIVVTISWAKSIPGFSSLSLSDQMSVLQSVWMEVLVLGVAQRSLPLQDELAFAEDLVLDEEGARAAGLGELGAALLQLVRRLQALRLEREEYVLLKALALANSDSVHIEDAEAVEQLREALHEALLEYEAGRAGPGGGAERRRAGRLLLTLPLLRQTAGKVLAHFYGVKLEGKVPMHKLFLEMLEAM
Chain of ERR gamma ligand-binding domain (LBD) (P62508 233-457): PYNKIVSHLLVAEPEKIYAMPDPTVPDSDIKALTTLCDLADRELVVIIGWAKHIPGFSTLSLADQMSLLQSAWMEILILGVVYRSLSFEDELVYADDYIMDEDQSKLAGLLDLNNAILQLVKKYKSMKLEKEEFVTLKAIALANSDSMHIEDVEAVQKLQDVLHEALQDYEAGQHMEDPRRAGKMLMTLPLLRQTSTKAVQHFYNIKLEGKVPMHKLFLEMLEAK

Compound: OCCC/C(=C(\c1ccc(O)cc1)c1ccc(C2CCN(C3CCCCC3)CC2)cc1)c1ccccc1 [Compound 22p]
- IC50 [1]: 0.099 µM
- IC50 [2]: 9.7 µM
- IC50 [3]: 2.12 µM
- CYP inhibition (% of control) 1A2 [4]: 88.1 % of control
- CYP inhibition (% of control) 2C9 [5]: 81.8 % of control
- CYP inhibition (% of control) 2C19 [6]: 61.5 % of control
- CYP inhibition (% of control) 2D6 [7]: 79.6 % of control
- CYP inhibition (% of control) 3A4 [8]: 90.6 % of control
- MS (Microsomal Stability) (%) human [9]: 72.3%
- MS (Microsomal Stability) (%) dog [10]: 77.7%
- MS (Microsomal Stability) (%) rat [11]: 75.3%
- MS (Microsomal Stability) (%) mouse [12]: 40.4%
- Permeability Pampa [13]: 0.2 10^−6 cm/s

Compound: CC(C)N1CCN(c2ccc(C(=C(CCCO)c3ccccc3)c3ccc(O)cc3)cc2)CC1 [Compound 18a]
- CYP inhibition (% of control) 1A2 [4]: 88 % of control
- concentration of maximum increase of iodine uptake ([14]; CAL62 cells): 12 µM
- radioactive iodine uptake in CAL62 cells ([14]; for each concentration and each time): significant increase
- ERRγ mRNA expression, decrease vs vehicle treated group [15]: about 16 times
- NIS mRNA expression, increase vs vehicle-treated group [16]: about 2 times
- ERRγ protein expression, decrease vs vehicle treated group [17]: about 2.8 times
- increase in membrane fully glycosylated NIS protein [18]: 8.1 times
- increase in membrane partially glycosylated NIS protein [18]: 6.4 times
- total NIS protein expression, change vs vehicle treated group ([18]; text says significantly increased, then decreased): about 1.9 times
- cytotoxic effect in clone formation assay [19]: minimal cytotoxic effect
- radioactive uptake in CAL62 tumor, increase vs vehicle group ([20]; 100 mpk orally daily for 6 days): 4.4 times
- radioactive uptake in CAL62 tumor, increase vs vehicle group ([20]; 200 mpk orally daily for 6 days): 16.2 times
- weight change in the mice [21]: abrupt weight change in the mice was not shown

Compound: OCCC/C(=C(\c1ccc(O)cc1)c1ccc(C2CCNCC2)cc1)c1ccccc1 [Compound 20j]
- IC50 [2]: > 10 µM
- IC50 [22]: 4.93 µM
- IC50 [3]: 0.992 µM
- Functional Assay at 10 μM (% of control), Cpds ([23]; 10 μM, AD293, 24 hours): 1.41 % of control
- Functional Assay, Cpds/Ref 5182 ([23]; activity relative to reference compound GSK5182): 1.38
- CYP inhibition (% of control) 1A2 [4]: 93.6 % of control
- CYP inhibition (% of control) 2C9 [5]: 77.1 % of control
- CYP inhibition (% of control) 2C19 [6]: 62 % of control
- CYP inhibition (% of control) 2D6 [7]: 89.3 % of control
- CYP inhibition (% of control) 3A4 [8]: 66.2 % of control
- MS (Microsomal Stability) (%) human [9]: 76.8%
- MS (Microsomal Stability) (%) dog [10]: 68.3%
- MS (Microsomal Stability) (%) rat [11]: 84.5%
- MS (Microsomal Stability) (%) mouse [12]: 25.3%
